The numbers were not newly measured in publication PMC9549396 (Proceedings of the National Academy of Sciences of the …, 2022), which cites them from elsewhere.

This data set addresses PI3KC2β (Homo sapiens, UniProt O00750). Nature of the data set: lipid kinase activity inhibition. The format is biochemical.

Chain of PI3KC2β (O00750 whole entry): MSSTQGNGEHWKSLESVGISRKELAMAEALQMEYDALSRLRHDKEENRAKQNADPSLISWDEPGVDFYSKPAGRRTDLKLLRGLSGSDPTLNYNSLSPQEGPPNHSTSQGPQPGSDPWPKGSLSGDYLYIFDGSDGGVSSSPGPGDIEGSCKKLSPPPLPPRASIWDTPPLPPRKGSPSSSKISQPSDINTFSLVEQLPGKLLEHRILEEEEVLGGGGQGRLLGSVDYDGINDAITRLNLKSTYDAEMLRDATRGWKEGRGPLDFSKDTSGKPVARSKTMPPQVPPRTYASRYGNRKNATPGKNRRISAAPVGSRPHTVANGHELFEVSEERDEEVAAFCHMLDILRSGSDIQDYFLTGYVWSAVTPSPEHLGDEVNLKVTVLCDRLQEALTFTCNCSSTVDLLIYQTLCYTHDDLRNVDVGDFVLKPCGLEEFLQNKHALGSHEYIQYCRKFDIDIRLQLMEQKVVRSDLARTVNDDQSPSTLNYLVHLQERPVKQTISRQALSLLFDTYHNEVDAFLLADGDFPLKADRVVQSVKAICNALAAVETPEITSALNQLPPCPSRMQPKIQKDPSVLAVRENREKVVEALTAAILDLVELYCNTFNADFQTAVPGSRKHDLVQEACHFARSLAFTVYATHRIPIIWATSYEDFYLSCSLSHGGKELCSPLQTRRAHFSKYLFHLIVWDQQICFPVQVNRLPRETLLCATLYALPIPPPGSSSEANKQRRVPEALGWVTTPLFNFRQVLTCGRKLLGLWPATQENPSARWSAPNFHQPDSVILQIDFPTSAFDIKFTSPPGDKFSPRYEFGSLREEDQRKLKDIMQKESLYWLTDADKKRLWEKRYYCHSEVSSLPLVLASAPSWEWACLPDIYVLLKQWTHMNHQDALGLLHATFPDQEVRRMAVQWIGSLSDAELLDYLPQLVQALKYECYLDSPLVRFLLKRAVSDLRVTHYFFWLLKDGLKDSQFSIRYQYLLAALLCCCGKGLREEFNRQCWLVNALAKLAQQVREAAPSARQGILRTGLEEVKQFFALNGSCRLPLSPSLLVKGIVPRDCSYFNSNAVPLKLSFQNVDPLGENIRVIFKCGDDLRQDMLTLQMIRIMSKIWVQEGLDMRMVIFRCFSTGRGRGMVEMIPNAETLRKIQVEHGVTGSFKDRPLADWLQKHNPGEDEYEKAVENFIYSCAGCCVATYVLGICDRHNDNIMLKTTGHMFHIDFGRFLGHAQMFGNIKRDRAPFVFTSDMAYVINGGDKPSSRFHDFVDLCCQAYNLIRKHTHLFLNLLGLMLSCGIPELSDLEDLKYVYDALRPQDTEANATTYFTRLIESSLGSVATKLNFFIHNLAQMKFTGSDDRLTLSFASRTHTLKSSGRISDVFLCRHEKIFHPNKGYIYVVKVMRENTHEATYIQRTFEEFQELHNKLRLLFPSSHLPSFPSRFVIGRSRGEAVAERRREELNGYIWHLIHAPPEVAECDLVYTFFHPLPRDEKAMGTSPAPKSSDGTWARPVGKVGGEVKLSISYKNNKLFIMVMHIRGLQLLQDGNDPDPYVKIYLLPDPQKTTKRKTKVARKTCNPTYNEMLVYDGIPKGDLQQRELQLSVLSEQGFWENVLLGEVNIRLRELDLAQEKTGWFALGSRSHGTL

Turning to PITCOIN2, the IC50 was 1500 nM.

In general, IC50 refers to the point on the concentration scale where inhibition reaches its midpoint.
